Data published in patent US4985406A (Institut National de la Sante et de La Recherche Medicale …, priority 1987, dated 1991).
Starred links: 1 amine or outer side, 2 acyl side, 3 side chain; linkers in the order of their positions; H or OH if unused. Positions of bridges follow the written chain, without caps; N, C: chain ends. Non-standard residues stand in square brackets, D forms with d. Residues, ends and D or L forms follow the SMILES beside them. *: point of attachment. X1 = CC(C)(C)OC(=O)N[C@H](CCC(=O)[*:1])C(=O)[*:2]; sY = N[C@@H](Cc1ccc(OS(=O)(=O)O)cc1)C(=O)O; Nle = CCCC[C@H](N)C(=O)O; Boc = CC(C)(C)OC(=O)*

How the values were obtained:
[1] = molecular target: cholecystokininergic receptors of the central nervous system (guinea-pig brain cortex); assay: Binding test, competition with [3H]BOC-[NLe28,31]CCK27-33 on guinea-pig brain cortex; details: for Ki: [3H]BOC-[NLe28,31]CCK27-33 at 0.2 nM, guinea-pig brain cortex; for Selectivity factor: ratio given as drawing 11, matches KI pancreatic acini / KI cortex
Method: (§1) The products of the invention are tested in competitive experiments with respect to the ligand [^3 H]BOC-[NLe^28,31 ]CCK27-33 on guinea-pig brain cortex and guinea-pig pancreatic acini. […] The [^3 H]BOC-[NLe^28,31 ]CCK27-33 was used at a concentration of 0.2 nM for the brain and 0.5 nM for the pancreas.

[2] = molecular target: guinea-pig pancreatic acini; assay: Test of release of pancreatic amylase; assay type: cell-based; details: acini incubated 30 minutes at 37° C.; mean of 3 independent experiments in triplicate; read-out: Secretion of pancreatic amylase by guinea-pig acini, agonist activity EC50
Method: J. Physiol., 235, E 743 (1978). The acini are incubated for 30 minutes at 37° C. in the presence of the test product at different doses, according to the method described by GARDNER and JACKSON, J. Physiol., 270, 439 (1977). The amylase activity is determined using the PHADEBAS reagent (Pharmacia) according to the method described by CESKA et al., Experientia, 25, 555 (1969).
The values shown in this table represent the mean of 3 independent experiments, each performed in triplicate.

[3] = test system: guinea-pig ileum; assay: Test of contraction-inducing activity on guinea-pig ileum; details: mean (±S.E.M.) of 3 independent experiments; read-out: Contraction-inducing activity on guinea-pig ileum, agonist activity EC50
Method: This test is carried out according to the method described by HUTCHINSON et al., Eur. J. Pharmacol., 69, 87 (1981). Strips of guinea-pig ileum of the terminal portion are rapidly removed and attached in the cell of an isometric gauge containing 25 cm^3 of Tyrode's solution. The solution is maintained at 37° C. while a stream of a gas composed of 95% oxygen and 5% CO2 is passed through bubble by bubble. The test compounds are tested under the conditions described by RUIZ-GAYO et al., Peptides, 6, 415 (1985).
The values shown in this table for the agonist activity represent the mean (±S.E.M.) of 3 independent experiments.

[4] = molecular target: T1, peripheral cholecystokininergic receptors (guinea-pig pancreatic acini) (Cavia porcellus, UniProt Q63931); assay: Binding test, competition with [3H]BOC-[NLe28,31]CCK27-33 on guinea-pig pancreatic acini; details: [3H]BOC-[NLe28,31]CCK27-33 at 0.5 nM
T1 construct: on guinea-pig brain cortex and guinea-pig pancreatic acini; from tissue; host or cells: guinea-pig pancreatic acini
T1 sequence (Q63931 1-430): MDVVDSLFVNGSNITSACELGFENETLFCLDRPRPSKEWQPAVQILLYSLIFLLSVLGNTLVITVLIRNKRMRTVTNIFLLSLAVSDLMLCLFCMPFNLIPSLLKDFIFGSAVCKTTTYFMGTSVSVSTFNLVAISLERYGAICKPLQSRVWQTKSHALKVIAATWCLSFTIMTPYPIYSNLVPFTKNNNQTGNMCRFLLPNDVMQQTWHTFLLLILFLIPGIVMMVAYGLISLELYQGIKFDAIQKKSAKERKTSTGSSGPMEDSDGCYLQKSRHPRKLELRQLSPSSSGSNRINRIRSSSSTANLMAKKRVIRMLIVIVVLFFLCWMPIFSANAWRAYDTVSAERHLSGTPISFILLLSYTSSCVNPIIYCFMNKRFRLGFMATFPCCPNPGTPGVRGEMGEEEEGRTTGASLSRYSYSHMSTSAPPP
Method: as §1

Ki [4] [nM] | Compound | Ki [1] [nM] | Selectivity factor [1] | EC50 [2] [nM] | EC50 [3] [nM]
– | CCCC[C@H](NC(=O)[C@H](Cc1c[nH]c2ccccc12)NC(=O)[C@H]1CCCCNC(=O)C[C@@H](NC(=O)OC(C)(C)C)C(=O)N[C@@H](Cc2ccc(OS(=O)(=O)O)cc2)C(=O)N[C@@H](CCCC)C(=O)N1)C(=O)N[C@@H](CC(=O)O)C(=O)N[C@@H](Cc1ccccc1)C(N)=O [Example 5] (Boc-[dD][sY][Nle][dK]W[Nle]DF-NH2; lactam 1-4; N-terminus assumed) | 5.1 | 179 | < 10000 | > 10000
– | CCCC[C@H](NC(=O)[C@H](Cc1c[nH]c2ccccc12)NC(=O)[C@H]1CCCCNC(=O)CC[C@@H](NC(=O)OC(C)(C)C)C(=O)N[C@@H](Cc2ccc(OS(=O)(=O)O)cc2)C(=O)N[C@@H](CCCC)C(=O)N1)C(=O)N[C@@H](CC(=O)O)C(=O)N[C@@H](Cc1ccccc1)C(N)=O [Example 7] (Boc-[dE][sY][Nle][dK]W[Nle]DF-NH2; lactam 1-4; N-terminus assumed) | 6.3 | 160 | – | > 10000
860 | CCCC[C@H](NC(=O)[C@H](Cc1c[nH]c2ccccc12)NC(=O)[C@H]1CCCCNC(=O)[C@H](NC(=O)OC(C)(C)C)CCC(=O)N[C@@H](Cc2ccc(O)cc2)C(=O)N[C@@H](CCCC)C(=O)N1)C(=O)N[C@@H](CC(=O)O)C(=O)N[C@@H](Cc1ccccc1)C(N)=O [Example 15] (Y[Nle][dK]W[Nle]DF-NH2; linker N-3 via X1) | – | – | – | –
– | CCCC[C@H](NC(=O)[C@H](Cc1c[nH]c2ccccc12)NC(=O)[C@H]1CCCCNC(=O)[C@H](NC(=O)OC(C)(C)C)CCC(=O)N[C@@H](Cc2ccc(OS(=O)(=O)O)cc2)C(=O)N[C@@H](CCCC)C(=O)N1)C(=O)N[C@@H](CC(=O)O)C(=O)N[C@@H](Cc1ccccc1)C(N)=O [Example 16] ([sY][Nle][dK]W[Nle]DF-NH2; linker N-3 via X1; C-terminus assumed) | 0.49 | 1970 | – | > 10000
